Assay results: PubChem BioAssay AID540318 (Broad Institute, 2011)

System: BJeLR fibroblasts viability, Alamar Blue fluorescence, 48 h
Assay: viability loss in BJeLR fibroblasts, dose response, cell-based, Ras selective lethality, dry powder, set 4 (AID 540318)

Question: With `Cc1onc(C(=O)N2CCN(C(c3ccccc3)c3ccccc3)CC2)c1[N+](=O)[O-]` as the molecule, how does the AC50 read?
Answer: Its AC50 is 2.81 µM.

Question: `O=C(c1cc([N+](=O)[O-])ccn1)N1CCN(C(c2ccccc2)c2ccccc2)CC1` was tested. Which AC50 did it give?
Answer: The AC50 was 37.1 µM.

Question: With `Cc1onc(C(=O)N2CCN(C(c3ccc(F)cc3)c3ccc(F)cc3)CC2)c1[N+](=O)[O-]` as the molecule, how does the AC50 read?
Answer: The AC50 was 0.934 µM.

Question: With `Cc1onc(C(=O)N2CCN(C(c3ccccc3)c3ccc(Cl)cc3)CC2)c1[N+](=O)[O-]` (configuration not stated) as the molecule, how does the AC50 read?
Answer: The AC50 was 0.706 µM.

Question: For `Cc1onc(C(=O)N2CCN(C(c3ccc(Cl)cc3)c3ccc(Cl)cc3)CC2)c1[N+](=O)[O-]`, which AC50 is on record?
Answer: The AC50 was 0.364 µM.

Question: For `Cc1onc(CC(=O)N2CCN(C(c3ccc(F)cc3)c3ccc(F)cc3)CC2)c1[N+](=O)[O-]`, which AC50 is on record?
Answer: Its AC50 is 28 µM.

Question: Which AC50 does the source give for `CCOc1ccccc1-n1c(C(C)N2CCN(C(=O)COc3ccc(Cl)cc3)CC2)nc2ccccc2c1=O` (configuration not stated) here?
Answer: The AC50 was 1.43 µM.

Question: `O=C(NCCNC(c1ccccc1)c1ccccc1)c1ccc([N+](=O)[O-])o1` was tested. Which AC50 did it give?
Answer: Its AC50 is 25.9 µM.

Question: How did the AC50 turn out when `O=C(c1ccc([N+](=O)[O-])o1)N1CCN(C(c2ccc(F)cc2)c2ccc(F)cc2)CC1` was run?
Answer: Its AC50 is 34.9 µM.

Question: With `COc1ccc(C(c2ccc(OC)cc2)N2CCN(C(=O)c3noc(C)c3[N+](=O)[O-])CC2)cc1` as the molecule, how does the AC50 read?
Answer: Its AC50 is 4.29 µM.

Question: Which AC50 does the source give for `COC(=O)c1ccc([C@@H]2c3[nH]c4ccccc4c3C[C@@H](C(=O)OC)N2C(=O)CCl)cc1` here?
Answer: Its AC50 is 0.79 µM.

Question: `Cc1onc(C(=O)N2CCCN(C(c3ccccc3)c3ccccc3)CC2)c1[N+](=O)[O-]` was tested. Which AC50 did it give?
Answer: Its AC50 is 3.45 µM.
